From patent publication US9464063B2, “Benzo [B] [1,4] oxazin derivatives as calcium sensing receptor modulators” (LUPIN ATLANTIS HOLDINGS SA, priority 2011, dated 2016)
Structures can show the parent of a compound that is named as a salt.

Biological target: T1, Calcium sensing receptor (hCaSR) (Homo sapiens, UniProt P41180)
T1 construct: expressed in transfected cells
T1 sequence (P41180 20-1078): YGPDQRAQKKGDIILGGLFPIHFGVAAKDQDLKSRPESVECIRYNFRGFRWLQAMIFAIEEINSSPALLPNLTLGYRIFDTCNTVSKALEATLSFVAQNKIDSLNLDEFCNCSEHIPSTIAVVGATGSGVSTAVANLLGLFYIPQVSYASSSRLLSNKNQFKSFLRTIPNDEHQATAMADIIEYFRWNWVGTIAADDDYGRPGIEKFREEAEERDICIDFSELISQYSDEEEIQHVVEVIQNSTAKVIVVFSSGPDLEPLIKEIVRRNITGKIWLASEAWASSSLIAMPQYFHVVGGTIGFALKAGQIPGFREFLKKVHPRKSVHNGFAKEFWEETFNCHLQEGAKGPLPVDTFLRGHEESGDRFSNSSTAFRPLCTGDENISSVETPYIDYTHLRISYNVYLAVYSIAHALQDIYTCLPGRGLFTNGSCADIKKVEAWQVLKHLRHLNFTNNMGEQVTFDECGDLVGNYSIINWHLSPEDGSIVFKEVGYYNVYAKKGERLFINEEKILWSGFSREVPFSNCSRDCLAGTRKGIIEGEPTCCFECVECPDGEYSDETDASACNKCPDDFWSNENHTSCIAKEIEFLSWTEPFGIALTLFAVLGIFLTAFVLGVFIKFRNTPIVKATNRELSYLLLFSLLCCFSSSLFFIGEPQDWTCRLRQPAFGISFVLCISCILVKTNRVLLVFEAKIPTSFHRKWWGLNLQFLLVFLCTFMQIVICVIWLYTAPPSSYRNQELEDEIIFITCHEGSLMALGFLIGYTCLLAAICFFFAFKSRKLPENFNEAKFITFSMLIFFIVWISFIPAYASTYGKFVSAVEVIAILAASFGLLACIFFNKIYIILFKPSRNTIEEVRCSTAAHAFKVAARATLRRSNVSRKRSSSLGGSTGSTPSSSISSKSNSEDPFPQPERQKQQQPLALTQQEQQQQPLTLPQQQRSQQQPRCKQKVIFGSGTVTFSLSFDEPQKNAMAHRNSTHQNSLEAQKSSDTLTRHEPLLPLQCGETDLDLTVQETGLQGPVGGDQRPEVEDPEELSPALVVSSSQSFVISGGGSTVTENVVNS
Assay: In-vitro assay of calcimimetics through modulation of calcium sensing receptor: increase in intracellular calcium [Ca2+]i, FLIPR
Type: cell-based
Details: stably transfected HEK293 cells expressing hCaSR; Fluo4NW dye; 0.3 mM CaCl2; 8-point assay; read-out: EC50 Range
Protocol: In-Vitro Assay Method of Calcimemtics Through Modulation of Calcium Sensing Receptor (CaSR):
The ability of the compounds to modulate Calcium sensing receptor is determined by measuring an increase in intracellular calcium [Ca^2+]i. Stably transfected HEK293 cells expressing hCaSR_pTriEx-3 hygro vector are developed. Cells are grown overnight on a 96-well plate to 80% confluency in Ham's F12 containing 20% FBS at 37° C., 5% CO2. Subsequently, cells are washed extensively with 20 mM HEPES buffer containing 126 mM NaCl, 1 mM MgCl2 and 4 mM KCl to remove serum components that might interfere with the assay. Cells are loaded with calcium sensing Fluo4NW dye in HEPES base buffer containing 0.1% BSA and 1 mg/ml glucose for 30 minutes to measure changes in intracellular calcium. The activities of the compounds are measured in FLIPR using 0.3 mM CaCl2 in 20 mM HEPES base buffer. The effectiveness of the compound to modulate receptor activity is determined by calculating the EC50 responses for that compound in an 8-point assay and plotted using GraphPad Prism 5.

EC50 [nM] | SMILES
20 to 50 | C[C@@H](NCC1CN(c2cccc(OCC(=O)O)c2)c2ccccc2O1)c1cccc2ccccc12 (stereo partly drawn) [Example 50, 2-(3-(2-((((R)-1-(naphthalen-1-yl)ethyl)amino)methyl)-2H-benzo[b] [1,4]oxazin-4(3H)-yl)phenoxy)acetic acid hydrochloride]
50 to 200 | COc1cc(C(=O)O)cc(N2CC(CN[C@H](C)c3cccc4ccccc34)Oc3ccccc32)c1 (stereo partly drawn) [Example 54, 3-Methoxy-5-(2-((((R)-1-(naphthalen-1-yl)ethyl)amino)methyl)-2H-benzo [b][1,4]oxazin-4(3H)-yl) benzoic acid hydrochloride]
50 to 200 | C[C@@H](NCC1CN(c2cccc(CC(=O)O)c2)c2ccccc2O1)c1cccc2ccccc12 (stereo partly drawn) [Example 69, 2-(3-(2-((((R)-1-(Naphthalen-1-yl)ethyl)amino)methyl)-2H-benzo [b][1,4]oxazin-4(3H)-yl)phenyl)acetic acid hydrochloride]
50 to 200 | C[C@@H](NCC1CN(c2cc(F)cc(C(=O)O)c2)c2ccccc2O1)c1cccc2ccccc12 (stereo partly drawn) [Example 72, 3-Fluoro-5-(2-((((R)-1-(naphthalen-1-yl)ethyl)amino)methyl)-2H-benzo [b][1,4]oxazin-4(3H)-yl) benzoic acid hydrochloride]
20 to 50 | Cc1ccc(N2CC(CN[C@H](C)c3cccc4ccccc34)Oc3cc(F)ccc32)cc1C(=O)O (stereo partly drawn) [Example 84, 5-(7-Fluoro-2-((((R)-1-(naphthalen-1-yl)ethyl)amino)methyl)-2H-benzo[b][1,4]oxazin-4(3H)-yl)-2-methyl benzoic acid hydrochloride]
50 to 200 | Cc1cc(N2CC(CCN[C@H](C)c3cccc4ccccc34)Oc3ccccc32)ccc1C(=O)O (stereo partly drawn) [Example 134a, 2-Melhyl-4-(2-(2-(((R-1-(naphthalen-1-yl)ethyl)amino)ethyl)-2H-benzo[b] [1,4]oxazin-4(3H)-yl)benzoic acid hydrochloride]
< 20 | C[C@@H](NCCC1CN(c2ccc(C(F)(F)F)c(C(=O)O)c2)c2ccccc2O1)c1cccc2ccccc12 (stereo partly drawn) [Example 135a, 5-(2-(2-(((R)-1-(Naphthalen-1-yl)ethyl)amino)ethyl)-2H-benzo [b][1,4]oxazin-4(3H)-yl)-2-(trifluoromethyl) benzoic acid hydrochloride]
50 to 200 | CC(C)c1ccc(N2CC(CCN[C@H](C)c3cccc4ccccc34)Oc3ccccc32)cc1C(=O)O (stereo partly drawn) [Example 137a, 2-Isopropyl-5-(2-(2-(((R)-1-(naphthalen-1-yl)ethyl)amino)ethyl)-2H-benzo[b] [1,4]oxazin-4(3H)-yl) benzoic acid hydrochloride]
< 20 | C[C@@H](NCCC1CN(c2cccc(OCC(=O)O)c2)c2ccccc2O1)c1cccc2ccccc12 (stereo partly drawn) [Example 138a, 2-(3-(2-(2-(((R)-1-(Naphthalen-1-yl)ethyl)amino)ethyl)-2H-benzo[b][1,4]oxazin-4(3H)-yl)phenoxy)aceticacid hydrochloride]
< 20 | C[C@@H](NCCC1CN(c2ccc(CCC(=O)O)cc2)c2ccccc2O1)c1cccc2ccccc12 (stereo partly drawn) [Example 139a, 3-(4-(2-(2-(((R)-1-(Naphlhalen-1-yl)ethyl)amino)ethyl)-2H-benzo [b][1,4]oxazin-4(3H)-yl)phenyl)propanoic acid hydrochloride]
< 20 | COc1ccc(N2CC(CCN[C@H](C)c3cccc4ccccc34)Oc3ccccc32)cc1C(=O)O (stereo partly drawn) [Example 141a, 2-Methoxy-5-(2-(2-(((R)-1-(naphthalen-1-yl)ethyl)amino)ethyl)-2H-benzo[b] [1,4]oxazin-4(3H)-yl) benzoic acid hydrochloride]
50 to 200 | C[C@@H](NCCC1CN(c2ccc(CC(=O)O)cc2)c2ccccc2O1)c1cccc2ccccc12 (stereo partly drawn) [Example 143a, 2-(4-(2-(2-(((R)-1-(Naphthalen-1-yl)ethyl)amino)ethyl)-2H-benzo[b][1,4]oxazin-4(3H)-yl)phenyl) acetic acid hydrochloride]
< 20 | Cc1cc(N2CC(CCN[C@H](C)c3cccc4ccccc34)Oc3ccccc32)ccc1OCC(=O)O (stereo partly drawn) [Example 144a, 2-(2-Methyl-4-(2-(2-(((R)-1-(naphlhalen-1-yl)ethyl)amino)ethyl)-2H-benzo[b] [1,4]oxazin-4(3H)-yl)phenoxy)aceticacid hydrochloride]
< 20 | Cc1ccc(N2CC(CCN[C@H](C)c3cccc4ccccc34)Oc3ccccc32)c(C)c1C(=O)O (stereo partly drawn) [Example 148a, 2,6-Dimethyl-3-(2-(2-(((R)-1-(naphthalen-1-yl)ethyl)amino)ethyl)-2H-benzo[b] [1,4]oxazin-4(3H)-yl) benzoic acid hydrochloride]
< 20 | Cc1ccc(CN2CC(CCN[C@H](C)c3cccc4ccccc34)Oc3ccccc32)cc1C(=O)O (stereo partly drawn) [Example 177a, 2-Methyl-5-((2-(2-(((R)-1-(naphthalen-1-yl)ethyl)amino)ethyl)-2H-benzo[b][1,4]oxazin-4(3H)-yl)methyl)benzoic acid hydrochloride]
